Experimental data reported in ChEMBL document CHEMBL3044843, “Synthesis of 1,2,3-triazole tethered bifunctional hybrids by click chemistry and their cytotoxic studies” (2013).
Counter-ions that a name gives are not always drawn.

Experiments:
Type in all cases: functional
Settings in all cases: read-out: GI
COLO 205 [1] = test: Growth inhibition of Homo sapiens (human) COLO205 cells at 10 uM by SRB assay
COLO 205 [2] = test: Growth inhibition of Homo sapiens (human) COLO205 cells at 100 uM by SRB assay
THP-1 [3] = test: Growth inhibition of Homo sapiens (human) THP1 cells at 100 uM by SRB assay
THP-1 [4] = test: Growth inhibition of Homo sapiens (human) THP1 cells at 10 uM by SRB assay
A549 [5] = test: Growth inhibition of Homo sapiens (human) A549 cells at 10 uM by SRB assay
A549 [6] = test: Growth inhibition of Homo sapiens (human) A549 cells at 100 uM by SRB assay
COLO 205 [7] = test: Growth inhibition of Homo sapiens (human) COLO205 cells at 1 uM by SRB assay

COc1cc(C2CC(c3ccc(Cl)cc3)=NN2C(C)=O)ccc1OCc1cn(Cc2ccc([N+](=O)[O-])cc2)nn1 (stereo not given)
inhibition of growth at 10 µM (COLO 205 [1]): 0% | inhibition of growth at 100 µM (COLO 205 [2]): 10% | inhibition of growth at 100 µM (THP-1 [3]): 37% | inhibition of growth at 10 µM (THP-1 [4]): 17% | inhibition of growth at 10 µM (A549 [5]): 0% | inhibition of growth at 100 µM (A549 [6]): 0%

CC(=O)O[C@H]1C(=O)[C@@]2(C)[C@H]([C@H](OC(=O)c3ccccc3)[C@]3(O)C[C@H](OC(=O)[C@H](O)[C@@H](NC(=O)c4ccccc4)c4ccccc4)C(C)=C1C3(C)C)[C@]1(OC(C)=O)CO[C@@H]1C[C@@H]2O [PACLITAXEL]
inhibition of growth at 10 µM (THP-1 [4]): 62% | inhibition of growth at 10 µM (A549 [5]): 59%

COc1cc(C2CC(c3ccc(OCc4cn(Cc5ccc([N+](=O)[O-])cc5)nn4)cc3)=NN2C(C)=O)ccc1OCc1cn(Cc2ccc([N+](=O)[O-])cc2)nn1 (stereo not given)
inhibition of growth at 10 µM (COLO 205 [1]): 27% | inhibition of growth at 100 µM (COLO 205 [2]): 51% | inhibition of growth at 100 µM (THP-1 [3]): 15% | inhibition of growth at 10 µM (THP-1 [4]): 0% | inhibition of growth at 10 µM (A549 [5]): 29% | inhibition of growth at 100 µM (A549 [6]): 42%

COc1cc(C2CC(c3ccc(Br)cc3)=NN2C(C)=O)ccc1OCc1cn(Cc2ccc([N+](=O)[O-])cc2)nn1 (stereo not given)
inhibition of growth at 10 µM (COLO 205 [1]): 26% | inhibition of growth at 100 µM (COLO 205 [2]): 47% | inhibition of growth at 100 µM (THP-1 [3]): 23% | inhibition of growth at 10 µM (THP-1 [4]): 1% | inhibition of growth at 10 µM (A549 [5]): 0% | inhibition of growth at 100 µM (A549 [6]): 17%

COc1cc(C2CC(c3cc(OC)c(OC)c(OC)c3)=NN2C(C)=O)ccc1OCc1cn(Cc2ccc([N+](=O)[O-])cc2)nn1 (stereo not given)
inhibition of growth at 10 µM (COLO 205 [1]): 60% | inhibition of growth at 100 µM (COLO 205 [2]): 99% | inhibition of growth at 100 µM (THP-1 [3]): 43% | inhibition of growth at 10 µM (THP-1 [4]): 29% | inhibition of growth at 10 µM (A549 [5]): 68% | inhibition of growth at 100 µM (A549 [6]): 85%

CO[C@@]12[C@H](COC(N)=O)C3=C(C(=O)C(C)=C(N)C3=O)N1C[C@@H]1N[C@@H]12 [MITOMYCIN]
inhibition of growth at 10 µM (THP-1 [4]): 65%

COc1cccc2c1C(=O)c1c(O)c3c(c(O)c1C2=O)C[C@@](O)(C(=O)CO)C[C@@H]3O[C@H]1C[C@H](N)[C@H](O)[C@H](C)O1 [DOXORUBICIN HYDROCHLORIDE]
inhibition of growth at 1 µM (COLO 205 [7]): 72%

COc1cc(C2CC(c3cccc4ccccc34)=NN2C(C)=O)ccc1OCc1cn(Cc2ccc([N+](=O)[O-])cc2)nn1 (stereo not given)
inhibition of growth at 10 µM (COLO 205 [1]): 46% | inhibition of growth at 100 µM (COLO 205 [2]): 72% | inhibition of growth at 100 µM (THP-1 [3]): 79% | inhibition of growth at 10 µM (THP-1 [4]): 10% | inhibition of growth at 10 µM (A549 [5]): 89% | inhibition of growth at 100 µM (A549 [6]): 95%

COc1cc(C2CC(c3ccccc3)=NN2C(C)=O)ccc1OCc1cn(Cc2ccc([N+](=O)[O-])cc2)nn1 (stereo not given)
inhibition of growth at 10 µM (COLO 205 [1]): 7% | inhibition of growth at 100 µM (COLO 205 [2]): 11% | inhibition of growth at 100 µM (THP-1 [3]): 10% | inhibition of growth at 10 µM (THP-1 [4]): 0% | inhibition of growth at 10 µM (A549 [5]): 0% | inhibition of growth at 100 µM (A549 [6]): 11%

COc1ccc(C2=NN(C(C)=O)C(c3ccc(OCc4cn(Cc5ccc([N+](=O)[O-])cc5)nn4)c(OC)c3)C2)cc1 (stereo not given)
inhibition of growth at 10 µM (COLO 205 [1]): 10% | inhibition of growth at 100 µM (COLO 205 [2]): 75% | inhibition of growth at 100 µM (THP-1 [3]): 14% | inhibition of growth at 10 µM (THP-1 [4]): 8% | inhibition of growth at 10 µM (A549 [5]): 43% | inhibition of growth at 100 µM (A549 [6]): 84%

COc1cc(C2CC(c3ccc([N+](=O)[O-])cc3)=NN2C(C)=O)ccc1OCc1cn(Cc2ccc([N+](=O)[O-])cc2)nn1 (stereo not given)
inhibition of growth at 10 µM (COLO 205 [1]): 33% | inhibition of growth at 100 µM (COLO 205 [2]): 85% | inhibition of growth at 100 µM (THP-1 [3]): 59% | inhibition of growth at 10 µM (THP-1 [4]): 7% | inhibition of growth at 10 µM (A549 [5]): 39% | inhibition of growth at 100 µM (A549 [6]): 72%

CC(=O)N1N=C(c2ccc(OCc3cn(Cc4ccc([N+](=O)[O-])cc4)nn3)cc2)CC1c1ccccc1 (stereo not given)
inhibition of growth at 10 µM (COLO 205 [1]): 18% | inhibition of growth at 100 µM (COLO 205 [2]): 55% | inhibition of growth at 100 µM (THP-1 [3]): 22% | inhibition of growth at 10 µM (THP-1 [4]): 0% | inhibition of growth at 10 µM (A549 [5]): 15% | inhibition of growth at 100 µM (A549 [6]): 80%

COc1ccc(C2CC(c3ccc(OCc4cn(Cc5ccc([N+](=O)[O-])cc5)nn4)cc3)=NN2C(C)=O)cc1OC (stereo not given)
inhibition of growth at 10 µM (COLO 205 [1]): 9% | inhibition of growth at 100 µM (COLO 205 [2]): 38% | inhibition of growth at 100 µM (THP-1 [3]): 9% | inhibition of growth at 10 µM (THP-1 [4]): 8% | inhibition of growth at 10 µM (A549 [5]): 11% | inhibition of growth at 100 µM (A549 [6]): 36%

COc1ccc(C2CC(c3ccc(OCc4cn(Cc5ccc([N+](=O)[O-])cc5)nn4)cc3)=NN2C(C)=O)cc1 (stereo not given)
inhibition of growth at 10 µM (COLO 205 [1]): 4% | inhibition of growth at 100 µM (COLO 205 [2]): 37% | inhibition of growth at 100 µM (THP-1 [3]): 26% | inhibition of growth at 10 µM (THP-1 [4]): 15% | inhibition of growth at 10 µM (A549 [5]): 26% | inhibition of growth at 100 µM (A549 [6]): 33%
